Source: patent US20250262201A1, “COMPOUNDS AND METHODS USEFUL FOR STABILIZING PHENYLALANINE HYDROXYLASE MUTATIONS” (Agios Pharmaceuticals, Inc., priority 2022, published 2025)

Target: T1, human PAH with the R408W mutation (Homo sapiens, UniProt P00439, R408W)
T1 construct: expressed in transfected cells
T1 sequence (P00439 1-452 R408W): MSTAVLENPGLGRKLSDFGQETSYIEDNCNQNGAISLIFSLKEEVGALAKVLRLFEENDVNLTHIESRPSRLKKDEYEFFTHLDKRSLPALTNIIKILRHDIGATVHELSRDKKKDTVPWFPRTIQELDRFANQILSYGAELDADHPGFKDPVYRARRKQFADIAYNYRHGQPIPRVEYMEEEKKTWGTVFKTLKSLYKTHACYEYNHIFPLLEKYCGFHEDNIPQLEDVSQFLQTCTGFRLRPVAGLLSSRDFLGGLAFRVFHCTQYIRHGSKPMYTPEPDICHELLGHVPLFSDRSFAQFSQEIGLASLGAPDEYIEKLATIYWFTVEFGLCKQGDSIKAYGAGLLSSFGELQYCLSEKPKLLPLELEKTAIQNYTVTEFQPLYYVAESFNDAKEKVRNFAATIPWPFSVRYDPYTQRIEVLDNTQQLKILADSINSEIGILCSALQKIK
Assay: Cell Based Phenylalanine Flux Assay
Settings: A375 cells expressing human R408W PAH; 24 hrs compound incubation; 13C-Tyrosine by LC-MS; average where tested multiple times; read-out: AC50
Experimental: Compounds were resuspended in DMSO, and 2-fold serial dilutions were performed to generate a 10-point dose curve. Compounds were added to plated cells in a total volume of 100 pal, and a final DMSO concentration of 0.5%. Each compound was tested in duplicate. Following compound addition, cells were placed in a 5% CO2, 37° C. tissue culture incubator for 24 hrs. After the incubation period, 20 μM sepiapterin and 800 μM 13C9,15N-Phenylalanine were added. After 4 hours, cell media was removed. An aliquot of 10 μl of cell media was combined with 200 μl of extraction buffer (80% acetonitrile/20% H2O) for each well. Determination of ^13C-Tyrosine concentration was assessed by liquid chromatography mass spectrometry.

Row | SMILES | AC50 [nM]
1 | O=C(c1cnc(-c2ccccn2)s1)N1CCc2[nH]cnc2[C@H]1c1ccc2ccccc2c1 [Example 223, (R)-(4-(naphthalen-2-yl)-6,7-dihydro-1H-imidazo[4,5-c]pyridin-5(4H)-yl)(2-(pyridin-2-yl)thiazol-5-yl)methanone] | 1000 to 5000
2 | O=C(c1cnc(-c2ccccn2)s1)N1CCc2[nH]cnc2[C@@H]1c1ccc2ccccc2c1 [Example 224, (S)-(4-(naphthalen-2-yl)-6,7-dihydro-1H-imidazo[4,5-c]pyridin-5(4H)-yl)(2-(pyridin-2-yl)thiazol-5-yl)methanone] | > 5000
3 | O=C(c1cnn2ccccc12)N1CCc2[nH]cnc2[C@H]1c1cn2ccccc2n1 [Example 225, (R)-(4-(imidazo[1,2-a]pyridin-2-yl)-6,7-dihydro-1H-imidazo[4,5-c]pyridin-5(4H)-yl)(pyrazolo[1,5-a]pyridin-3-yl)methanone] | < 500
4 | O=C(c1cnn2ccccc12)N1CCc2[nH]cnc2[C@@H]1c1cn2ccccc2n1 [Example 226, (S)-(4-(imidazo[1,2-a]pyridin-2-yl)-6,7-dihydro-1H-imidazo[4,5-c]pyridin-5(4H)-yl)(pyrazolo[1,5-a]pyridin-3-yl)methanone] | > 5000
5 | Cc1ncoc1C(=O)N1CCc2[nH]cnc2[C@@H]1c1cn2ccccc2n1 [Example 227, (S)-(4-(imidazo[1,2-a]pyridin-2-yl)-6,7-dihydro-1H-imidazo[4,5-c]pyridin-5(4H)-yl)(4-methyloxazol-5-yl)methanone] | > 5000
6 | Cc1ncoc1C(=O)N1CCc2[nH]cnc2[C@H]1c1cn2ccccc2n1 [Example 228, (R)-(4-(imidazo[1,2-a]pyridin-2-yl)-6,7-dihydro-1H-imidazo[4,5-c]pyridin-5(4H)-yl)(4-methyloxazol-5-yl)methanone] | 1000 to 5000
7 | FC(F)c1nnc(N2CCc3[nH]cnc3[C@H]2c2cn3ccccc3n2)o1 [Example 230, (R)-2-(difluoromethyl)-5-(4-(imidazo[1,2-a]pyridin-2-yl)-6,7-dihydro-1H-imidazo[4,5-c]pyridin-5(4H)-yl)-1,3,4-oxadiazole] | 500 to 1000
8 | FC(F)(F)c1cnc(N2CCc3[nH]cnc3[C@H]2c2cn3ccccc3n2)nc1 [Example 231, (R)-4-(imidazo[1,2-a]pyridin-2-yl)-5-(5-(trifluoromethyl)pyrimidin-2-yl)-4,5,6,7-tetrahydro-1H-imidazo[4,5-c]pyridine] | < 500
9 | FC(F)(F)c1cnc(N2CCc3[nH]cnc3[C@@H]2c2cn3ccccc3n2)nc1 [Example 232, (S)-4-(imidazo[1,2-a]pyridin-2-yl)-5-(5-(trifluoromethyl)pyrimidin-2-yl)-4,5,6,7-tetrahydro-1H-imidazo[4,5-c]pyridine] | > 5000
10 | O=C(c1ocnc1C(F)(F)F)N1CCc2[nH]cnc2[C@@H]1c1cn2ccccc2n1 [Example 233, (S)-(4-(imidazo[1,2-a]pyridin-2-yl)-6,7-dihydro-1H-imidazo[4,5-c]pyridin-5(4H)-yl)(4-(trifluoromethyl)oxazol-5-yl)methanone] | > 5000
11 | O=C(c1ocnc1C(F)(F)F)N1CCc2[nH]cnc2[C@H]1c1cn2ccccc2n1 [Example 234, (R)-(4-(imidazo[1,2-a]pyridin-2-yl)-6,7-dihydro-1H-imidazo[4,5-c]pyridin-5(4H)-yl)(4-(trifluoromethyl)oxazol-5-yl)methanone] | < 500
12 | O=C(CC1CC1)N1CCc2[nH]cnc2[C@@H]1c1cn2ccccc2n1 [Example 237, (S)-2-cyclopropyl-1-(4-(imidazo[1,2-a]pyridin-2-yl)-6,7-dihydro-1H-imidazo[4,5-c]pyridin-5(4H)-yl)ethanone] | > 5000
13 | O=C(CC1CC1)N1CCc2[nH]cnc2[C@H]1c1cn2ccccc2n1 [Example 238, (R)-2-cyclopropyl-1-(4-(imidazo[1,2-a]pyridin-2-yl)-6,7-dihydro-1H-imidazo[4,5-c]pyridin-5(4H)-yl)ethanone] | < 500
14 | O=C(c1oc(C2CC2)nc1C(F)(F)F)N1CCc2[nH]cnc2[C@H]1c1cn2ccccc2n1 [Example 240, (R)-(2-cyclopropyl-4-(trifluoromethyl)oxazol-5-yl)(4-(imidazo[1,2-a]pyridin-2-yl)-6,7-dihydro-1H-imidazo[4,5-c]pyridin-5(4H)-yl)methanone] | < 500
15 | O=C(CCC1CC1)N1CCc2[nH]cnc2[C@@H]1c1cn2ccccc2n1 [Example 241, (S)-3-cyclopropyl-1-(4-(imidazo[1,2-a]pyridin-2-yl)-6,7-dihydro-1H-imidazo[4,5-c]pyridin-5(4H)-yl)propan-1-one] | > 5000
16 | O=C(CCC1CC1)N1CCc2[nH]cnc2[C@H]1c1cn2ccccc2n1 [Example 242, (R)-3-cyclopropyl-1-(4-(imidazo[1,2-a]pyridin-2-yl)-6,7-dihydro-1H-imidazo[4,5-c]pyridin-5(4H)-yl)propan-1-one] | < 500

Row | SMILES | AC50 [nM]
17 | O=C(c1ocnc1C1CC1)N1CCc2[nH]cnc2[C@@H]1c1cn2ccccc2n1 [Example 243, (S)-(4-cyclopropyloxazol-5-yl)(4-(imidazo[1,2-a]pyridin-2-yl)-6,7-dihydro-1H-imidazo[4,5-c]pyridin-5(4H)-yl)methanone] | 1000 to 5000
18 | O=C(c1ocnc1C1CC1)N1CCc2[nH]cnc2[C@H]1c1cn2ccccc2n1 [Example 244, (R)-(4-cyclopropyloxazol-5-yl)(4-(imidazo[1,2-a]pyridin-2-yl)-6,7-dihydro-1H-imidazo[4,5-c]pyridin-5(4H)-yl)methanone] | 500 to 1000
19 | CC(C)(C)c1ncc(C(=O)N2CCc3[nH]cnc3[C@H]2c2cn3ccccc3n2)s1 [Example 245, (R)-(2-(tert-butyl)thiazol-5-yl)(4-(imidazo[1,2-a]pyridin-2-yl)-6,7-dihydro-1H-imidazo[4,5-c]pyridin-5(4H)-yl)methanone] | 500 to 1000
20 | CC(C)(C)c1ncc(C(=O)N2CCc3[nH]cnc3[C@@H]2c2cn3ccccc3n2)s1 [Example 246, (S)-(2-(tert-butyl)thiazol-5-yl)(4-(imidazo[1,2-a]pyridin-2-yl)-6,7-dihydro-1H-imidazo[4,5-c]pyridin-5(4H)-yl)methanone] | > 5000
21 | CC(C)(F)c1ncc(C(=O)N2CCc3[nH]cnc3[C@@H]2c2cn3ccccc3n2)s1 [Example 247, (S)-(2-(2-fluoropropan-2-yl)thiazol-5-yl)(4-(imidazo[1,2-a]pyridin-2-yl)-6,7-dihydro-1H-imidazo[4,5-c]pyridin-5(4H)-yl)methanone] | > 5000
22 | CC(C)(F)c1ncc(C(=O)N2CCc3[nH]cnc3[C@H]2c2cn3ccccc3n2)s1 [Example 248, (R)-(2-(2-fluoropropan-2-yl)thiazol-5-yl)(4-(imidazo[1,2-a]pyridin-2-yl)-6,7-dihydro-1H-imidazo[4,5-c]pyridin-5(4H)-yl)methanone] | 500 to 1000
23 | CC(C)(C)c1ncc(C(=O)N2CCc3[nH]cnc3[C@H]2c2cn3ccccc3n2)o1 [Example 250, (R)-(2-(tert-butyl)oxazol-5-yl)(4-(imidazo[1,2-a]pyridin-2-yl)-6,7-dihydro-1H-imidazo[4,5-c]pyridin-5(4H)-yl)methanone] | 500 to 1000
24 | O=C(c1cnc(C2(F)CCC2)s1)N1CCc2[nH]cnc2[C@H]1c1cn2ccccc2n1 [Example 251, (R)-(2-(1-fluorocyclobutyl)thiazol-5-yl)(4-(imidazo[1,2-a]pyridin-2-yl)-6,7-dihydro-1H-imidazo[4,5-c]pyridin-5(4H)-yl)methanone] | 1000 to 5000
25 | O=C(c1cnc(C2(F)CCC2)s1)N1CCc2[nH]cnc2[C@@H]1c1cn2ccccc2n1 [Example 252, (S)-(2-(1-fluorocyclobutyl)thiazol-5-yl)(4-(imidazo[1,2-a]pyridin-2-yl)-6,7-dihydro-1H-imidazo[4,5-c]pyridin-5(4H)-yl)methanone] | > 5000
26 | O=C(CC1CC(F)C1)N1CCc2[nH]cnc2[C@@H]1c1cn2ccccc2n1 (stereo partly drawn) [Example 253, (S)-2-(3-fluorocyclobutyl)-1-(4-(imidazo[1,2-a]pyridin-2-yl)-6,7-dihydro-1H-imidazo[4,5-c]pyridin-5(4H)-yl)ethanone] | 1000 to 5000
27 | O=C(CC1CC(F)C1)N1CCc2[nH]cnc2[C@H]1c1cn2ccccc2n1 (stereo partly drawn) [Example 254, (R)-2-(3-fluorocyclobutyl)-1-(4-(imidazo[1,2-a]pyridin-2-yl)-6,7-dihydro-1H-imidazo[4,5-c]pyridin-5(4H)-yl)ethanone] | < 500
28 | O=C(c1oc(-c2ccccn2)nc1C(F)(F)F)N1CCc2[nH]cnc2[C@H]1c1cn2ccccc2n1 [Example 256, (R)-(4-(imidazo[1,2-a]pyridin-2-yl)-6,7-dihydro-1H-imidazo[4,5-c]pyridin-5(4H)-yl)(2-(pyridin-2-yl)-4-(trifluoromethyl)oxazol-5-yl)methanone] | < 500
29 | O=C(CCc1nccs1)N1CCc2[nH]cnc2[C@H]1c1ncc2ccccc2n1 [Example 273, (S)-1-(4-(quinazolin-2-yl)-6,7-dihydro-1H-imidazo[4,5-c]pyridin-5(4H)-yl)-3-(thiazol-2-yl)propan-1-one] | < 500
30 | O=C(CCc1nccs1)N1CCc2[nH]cnc2[C@@H]1c1ncc2ccccc2n1 [Example 274, (R)-1-(4-(quinazolin-2-yl)-6,7-dihydro-1H-imidazo[4,5-c]pyridin-5(4H)-yl)-3-(thiazol-2-yl)propan-1-one] | > 5000
31 | Cn1nc(C(F)F)nc1C(=O)N1CCc2[nH]cnc2[C@H]1c1ncc2ccccc2n1 [Example 276, (S)-(3-(difluoromethyl)-1-methyl-1H-1,2,4-triazol-5-yl)(4-(quinazolin-2-yl)-6,7-dihydro-1H-imidazo[4,5-c]pyridin-5(4H)-yl)methanone] | < 500
